The values that follow come from patent publication US20250144020A1, “ULTRA-LONG FLOATING HYDROGEL RAFT FOR PROLONGED GASTRIC RETENTION AND APPLICATIONS REQUIRING BUOYANCY WITH CONTROLLED-RELEASE” (Nanyang Technological University, priority 2022, published 2025).

The conditions of data set [1]: cited from earlier work.
The nature of data set [2]: In vitro release of MT in FaSGF with model fitting. In kind it is physicochemical. The conditions noted are these: 37° C., 150 rpm. How it is done: Receptacle cap type rafts were used for the release studies as the receptacle allows the loading of the FD, MP, and FM. The receptacle cap assembly also ensures that the system can be adopted for other drugs easily. This design was used to prevent the interaction of drugs with water in the hydrogel. 100 mg of free drug MT was weighed in triplicates and added to the receptacle of the raft before closing the lid to complete the assembly. Similarly, 20 mg of the MPs (prepared in Example 7) or one FM (prepared in Example 8) was weighed in replicates and added to the receptacle of the raft and closed with cap to obtain the raft containing MT in different forms. Drug forms that were not encased in the raft served as controls.
Required amounts of FD, MP, or FM were added to the receptacle of the raft, and the cap was used to close the structure to obtain FD encased in raft (FD-R), MP encased in raft (MP-R), and FM encased in raft (FM-R). This raft assembly was then tested under simulated gastric conditions using FaSGF in a shaking incubator (150 rpm) at 37° C. All experiments were carried out in triplicates. […] The collected samples were analyzed for the drugs using HPLC. For MT, acetonitrile:PBS (60:40) (PBS adjusted to pH 4.7) was used as the mobile phase at a flow rate of 0.8 ml/min and detected at 244 nm. […]

Data set [3] is described as follows: In vitro release of Ris in FaSGF with model fitting. In kind it is physicochemical. The conditions noted are these: not encased in raft.
Description: This raft assembly was then tested under simulated gastric conditions using FaSGF in a shaking incubator (150 rpm) at 37° C. All experiments were carried out in triplicates. At specified time points, the release media were collected and replaced with an equal volume of fresh FaSGF. The collected samples were analyzed for the drugs using HPLC. […] Each drug form, without the raft, served as a control. To elucidate the mechanism of drug release, the release data were fitted to mathematical models.
Four different forms of the drug were used: 1. free drug; 2. commercial tablet; 3. drug encapsulated MPs; and 4. drug encapsulated FMes. […] Each drug form, without the raft, served as a control.
Receptacle cap type rafts were used for the release studies as the receptacle allows the loading of the FD, MP, and FM. […] Drug forms that were not encased in the raft served as controls.

Structures can show the parent of a compound that is named as a salt.

For `COCCc1ccc(OCC(O)CNC(C)C)cc1` (stereo not shown) [MT, metoprolol tartrate], the “water solubility (in words)” value in data set [1] was “water-soluble”. Besides, in data set [2], the “time of MT release (sustained over / dissolved completely in), in words” value is recorded as “one hour”.
In the case of `Cc1nc2n(c(=O)c1CCN1CCC(c3noc4cc(F)ccc34)CC1)CCCC2` [Ris, Risperidone], the “time to complete dissolution, uncased” value in data set [3] came out at 1 h. Moreover, the “water solubility (in words)” value in data set [1] is recorded as “insoluble in water”.
